The record followed here is PMC4423475, “Structure-based discovery of the first non-covalent inhibitors of Leishmania major tryparedoxin peroxidase by high throughput docking” (Scientific Reports, 2015).

Assay [1] deals with T1, LmTXNPx (Leishmania major, UniProt Q4QF76). The experiment in a line: HRP-H2O2 competition assay (LmTXNPx inhibition assay). The format is biochemical. The text has this: To determine the ability of the selected compounds to inhibit the catalytic activity of LmTXNPx, we used the horseradish peroxidase (HRP)-H2O2 competition assay developed by Augusto and co-workers[16]. HRP is well known to react with H2O2 in a two-electron oxidation process that leads to the formation of HRP compound I (HRP-I), a stable HRP oxidized intermediate that can be followed at 398 nm. Reduced LmTXNPx competes with HRP for the H2O2 substrate, leading to a decrease in HRP-I yield that is proportional to LmTXNPx concentration. The addition of LmTXNPx inhibitors leads to a decrease in free LmTXNPx concentration and consequent increase in the HRP-I yield.
Competition kinetics have been performed for determining the activity of the compounds selected by HTD. The ability of the compounds to inhibit the H2O2 reduction by LmTXNPx has been determined by competition approach utilizing the well-known reactivity of H2O2 with horseradish peroxidase (HRP)[16][20][26]. HRP is a heme-containing peroxidase, which uses hydrogen peroxide (by reducing it to water) to oxidize different organic substrates to free radicals. The reaction takes place in three steps: • PFe(III) + H2O2 → P^·+Fe(IV) = O + H2O • P^·+Fe(IV) = O + X → X^• + PFe(IV) = O • PFe(IV) = O + X + 2H^+ → PFe(III) + X^· + H2O
Where PFe(III) is HRP (the native protein), P^·+Fe(IV) = O is the HRP compound I (HRP-I), PFe(IV) = O is the HRP compound II (HRP-II) and X is a generic substrate. The formation of HPR-I results in a change in light absorption in the visible range (Δε403 nm = 5.4 × 10^4 M^−1cm^−1). For kinetic studies the HRP oxidation is monitored at 398 nm (Δε398 nm = 4.2 × 10^4 M^−1cm^−1) instead of 403 nm (wavelength corresponding to the maximum of HRP absorbance) in order to avoid interferences arising from HRP-I reduction to HRP-II. This method is usually used to determine the second order rate constant of 2Cys- Peroxiredoxin reaction with hydrogen peroxide and peroxinitrite.
Thus, H2O2-mediated HRP oxidation is a two-electron oxidation process, leading to the formation of HRP-I, followed at 398 nm. The addition of increasing concentrations of pre-reduced LmTXNPx led to a lower yield in HRP-I since two reactions take place in solution: [drawing 1] [drawing 2]
Where I indicates the inhibitor and LmTXNPx-I indicates the complex between LmTXNPx and the inhibitor. The addition of active LmTXNPx inhibitors led to a decrease in the free LmTXNPx and the consequent recover in the HRP-I yield and therefore to a partial or total recover of the ΔA.
The HRP-based indirect kinetic assays to test the inhibitors was performed in the following way: HRP 2 μM was exposed to H2O2 0.25 μM in sodium phosphate buffer pH 7.4 and 25°C, either in the absence or in the presence of the indicated concentrations of reduced LmTXNPx and in the absence or in the presence of inhibitors. The relative changes in absorbance at 398 nm (ΔA/ΔA0), reflecting HRP-I formation, were determined.
(§1) The compounds ability to inhibit TXNPx has been evaluated by simply measuring the following ratio: ΔA/ΔA0 where ΔA0 is the difference in absorbance between HRP and compound I (ΔA0 = 0.04) and ΔA is the difference in absorbance between HRP and compound I in the presence of LmTXNPx and 100 μM inhibitors. All the compounds have been previously tested for their ability to inhibit HRP at a concentration of 100 μM.

In assay [2] the target is T2, horseradish peroxidase (HRP) (Armoracia rusticana, UniProt P00433).
T2 sequence (P00433 31-353): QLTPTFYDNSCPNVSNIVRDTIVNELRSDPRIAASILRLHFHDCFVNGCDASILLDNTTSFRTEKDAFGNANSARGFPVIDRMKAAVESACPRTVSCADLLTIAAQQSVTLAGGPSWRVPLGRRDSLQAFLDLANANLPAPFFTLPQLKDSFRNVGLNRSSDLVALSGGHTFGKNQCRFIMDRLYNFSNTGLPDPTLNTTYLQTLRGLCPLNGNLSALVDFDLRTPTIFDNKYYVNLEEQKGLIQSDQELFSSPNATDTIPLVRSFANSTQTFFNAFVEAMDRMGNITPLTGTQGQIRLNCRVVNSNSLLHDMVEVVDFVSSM
As to the kind of experiment: HRP inhibition control (compounds tested for their ability to inhibit HRP). The conditions noted are these: compound at 100 μM; for HRP inhibition: first series (HTD hits). The format is biochemical. How it is done: as §1

In assay [3] the target is T1, LmTXNPx. The experiment in a line: Surface plasmon resonance, immobilized LmTXNPx. The class given is binding. The conditions noted are these: SPR, 1:1 steady-state affinity model. How it is done: SPR experiments were carried out using a SensiQ Pioneer system (SensiQ, ICxNomadics Inc.). The interaction of the immobilized protein with the analytes was detected by mass concentration-dependent changes of the refractive index on the sensor chip surface. The changes in the observed SPR signal are expressed as Resonance Units (RU). Typically, a response change of 1000 RU corresponds to a change in the surface concentration on the sensor chip of about 1 ng of protein per mm^2.
The sensor chips (COOH5 SensiQ) were chemically activated by injection of 250 μl of a 1:1 mixture of N-hydroxysuccinimide (50 mM) and N-ethyl-N-(3-dimethylaminopropyl)carbodiimide (200 mM) at a flow rate of 25 μl/min. Recombinant LmTXNPx was immobilized on the activated sensor chip via amine coupling. The reaction was carried out at a rate of […] in 20 mM sodium acetate at pH 4.5; the remaining ester groups were blocked by injecting 100 μL of 1 M ethanolamine hydrochloride. Recombinant LmTXNPx was captured to approximately 2000 RU. The analytes were dissolved at a concentration of 10 mM or 20 mM in dimethylsulfoxide (DMSO), and diluted 1:100 in HEPES-buffered saline (HBS: 10 mM HEPES, pH 7.4; 150 mM NaCl; 0.005% surfactant P20).
FastStep injections of samples (100 or 200 μM analytes in HBS + 1% DMSO), and reference buffer (HBS + 1% DMSO) were performed: either the inhibitor and reference buffer were automatically diluted in HBS and injected by 7 serial doubling steps (step contact time = 15 s, nominal flow rate = 200 μl/min). The following analytes were injected: 0–17 s: analyte concentration = 3.12 μM; 17–33 s: 6.25 μM; 33–48 s: 12.5 μM; 48–62 s: 25 μM; 63–78 s: 50 μM; 78–93 s: 100 μM; 94–100 s: 200 μM; for each injection, a maximal RU value was obtained. In control experiments, the sensor chip was treated as described above in the absence of immobilized protein.
Each sensorgram is the average of three different experiments. Sensorgrams were subjected to global analysis using QDat software 2.2.0.23, and for each analyte concentration a % Response was calculated, allowing a local Rmax fit (according to the molecular weight of each compound) and displaying as a response relative to the Rmax. % Response vs. analyte concentration was plotted and a KD value was calculated for each analyte by fitting a simple 1:1 steady-state affinity model to the data.
(In general: SPR reads the build-up and loss of mass on a sensor chip optically.)

In assay [4] the target is Tryparedoxin peroxidase I from Leishmania major (LmTXNPx) (Leishmania major). The experiment in a line: crystal structure; hanging drop vapor diffusion at 293 K; 12 mg/mL protein in 20 mM Tris-HCl pH 7.5 with 50 mM DTT (reduced); pentamer in the asymmetric unit, decamer from two pentamers of adjacent asymmetric units.
Setting [5] is: first series (HTD hits), HRP 2 µM, H2O2 0.25 µM, 2.5 µM LmTXNPx, 100 µM inhibitors, pH 7.4, 25 °C.
Where [6] appears, read: residual activity of HRP, HRP 2 μM, H2O2 0.25 μM, 2.5 μM LmTXNPx, 100 μM inhibitors, sodium phosphate buffer pH 7.4, 25°C.

For the compound `COc1cc2cc(CN(Cc3ccc(F)cc3)Cc3nnnn3Cc3ccccc3)c(=O)[nH]c2cc1OC` [Compound 1, 3-((((1-Benzyl-1H-tetrazol-5-yl)methyl)(4-fluorobenzyl)amino)methyl)-6,7-dimethoxyquinolin-2(1H)-one], the “(ΔA/ΔA0) × 100” value at LmTXNPx [1] (setting [5]) was 47 ± 6%. On LmTXNPx [1] (setting [6]), the “(ΔA/ΔA0) × 100” value amounted to 52 ± 10%. In assay [2], the HRP inhib. entry was “No” and the HRP inhibition result is listed as “No”. Moreover, the Kd (usually the equilibrium constant for the complex coming apart) on LmTXNPx [3] is 290 ± 13 µM.
For `COc1cc2cc(CN(Cc3ccc(F)cc3)Cc3nnnn3Cc3cccc([N+](=O)[O-])c3)c(=O)[nH]c2cc1OC` [Compound 2, 3-(((4-Fluorobenzyl)((1-(3-nitrobenzyl)-1H-tetrazol-5-yl)methyl)amino)methyl)-6,7-dimethoxyquinolin-2(1H)-one], the “(ΔA/ΔA0) × 100” value on LmTXNPx [1] (setting [6]) is listed as 37 ± 9%. Also, in assay [2], the HRP inhib. result was “No”. At LmTXNPx [3], this compound displayed a Kd of 172 ± 6 µM.
The like results for `COc1cc2cc(CN(Cc3ccc(F)cc3)Cc3nnnn3Cc3cccc(N)c3)c(=O)[nH]c2cc1OC` [Compound 3, 3-((((1-(3-Aminobenzyl)-1H-tetrazol-5-yl)methyl)(4-fluorobenzyl)amino)methyl)-6,7-dimethoxyquinolin-2(1H)-one] were, in that order, 44 ± 6%, “No” and 354 ± 12 µM.
Take `COc1cc2cc(CN(Cc3ccc(F)cc3)Cc3nnnn3Cc3cccc(I)c3)c(=O)[nH]c2cc1OC` [Compound 5, 3-(((4-Fluorobenzyl)((1-(3-iodobenzyl)-1H-tetrazol-5-yl)methyl)amino)methyl)-6,7-dimethoxyquinolin-2(1H)-one]: at LmTXNPx [1] (setting [6]), the “(ΔA/ΔA0) × 100” value worked out at 71 ± 6%. Also, the HRP inhib. result in assay [2] was “No”. Further, the affinity at LmTXNPx [3], expressed as Kd, was 281 ± 11 µM.
As to `COc1cc2cc(CN(Cc3ccc(F)cc3)Cc3nnnn3Cc3cccc(-c4ccccc4)c3)c(=O)[nH]c2cc1OC` [Compound 6, 3-((((1-([1,1′-Biphenyl]-3-ylmethyl)-1H-tetrazol-5-yl)methyl)(4-fluorobenzyl)amino)methyl)-6,7-dimethoxyquinolin-2(1H)-one], the “(ΔA/ΔA0) × 100” value at LmTXNPx [1] (setting [6]) turned out to be 75 ± 9%. In addition, the HRP inhib. entry in assay [2] is “No”. The compound also gave a dissociation constant Kd at LmTXNPx [3] of 52 ± 1 µM.
`COc1ccc2[nH]c(=O)c(CN(Cc3ccc(F)cc3)Cc3nnnn3Cc3ccccc3)cc2c1` [Compound 7, 3-((((1-Benzyl-1H-tetrazol-5-yl)methyl)(4-fluorobenzyl)amino)methyl)-6-methoxyquinolin-2(1H)-one]: the “(ΔA/ΔA0) × 100” value at LmTXNPx [1] (setting [6]) is on record as 60 ± 7%. For the same compound, in assay [2], the HRP inhib. entry is “No”. At LmTXNPx [3], this compound returned a Kd of 47 ± 1 µM.
The like results for `O=c1[nH]c2ccccc2cc1CN(Cc1ccc(F)cc1)Cc1nnnn1Cc1ccccc1` [Compound 8, 3-((((1-Benzyl-1H-tetrazol-5-yl)methyl)(4-fluorobenzyl)amino)methyl)quinolin-2(1H)-one] were, in that order, 45 ± 15%, “No” and 104 ± 4 µM.
The corresponding values for `COc1cc2cc(CN(Cc3ccc(Br)cc3)Cc3nnnn3Cc3ccccc3)c(=O)[nH]c2cc1OC` [Compound 11, 3-((((1-Benzyl-1H-tetrazol-5-yl)methyl)(4-bromobenzyl)amino)methyl)-6,7-dimethoxyquinolin-2(1H)-one] are 37 ± 20%, “No” and 112 ± 4 µM.
As for `COc1cc2cc(CN(Cc3nnnn3Cc3ccccc3)CC34CC5CC(CC(C5)C3)C4)c(=O)[nH]c2cc1OC` [Compound 12, 3-((((1-Benzyl-1H-tetrazol-5-yl)methyl)(1-adamantylmethyl)amino)methyl)-6,7-dimethoxyquinolin-2(1H)-one], the “(ΔA/ΔA0) × 100” value at LmTXNPx [1] (setting [6]) is listed as 93 ± 6%. Also, the HRP inhib. result in assay [2] is on record as “No”. Binding at LmTXNPx [3] was characterised by a dissociation constant (Kd) of 39 ± 1 µM.
`O=C(Nc1cc(C(=O)Nc2ccc(S(=O)(=O)[O-])c3cc(S(=O)(=O)[O-])cc(S(=O)(=O)[O-])c23)cc(C(=O)Nc2ccc(S(=O)(=O)[O-])c3cc(S(=O)(=O)[O-])cc(S(=O)(=O)[O-])c23)c1)Nc1cc(C(=O)Nc2ccc(S(=O)(=O)[O-])c3cc(S(=O)(=O)[O-])cc(S(=O)(=O)[O-])c23)cc(C(=O)Nc2ccc(S(=O)(=O)[O-])c3cc(S(=O)(=O)[O-])cc(S(=O)(=O)[O-])c23)c1.[Na+].[Na+].[Na+].[Na+].[Na+].[Na+].[Na+].[Na+].[Na+].[Na+].[Na+].[Na+]` [NF864]: the “(ΔA/ΔA0) × 100” value on LmTXNPx [1] (setting [5]) came out at 16 ± 6%. For the same compound, the HRP inhibition entry in assay [2] is “No”.
For the compound “Tryparedoxin peroxidase I from Leishmania major (LmTXNPx) (enzyme)”, in assay [4], the stoichiometry N (usually the number of molecules, sites or subunits per partner or assembly) is 10.
